Experimental data reported in patent EP4640678A1, “NOVEL OXO-PYRIDINE COMPOUND, PREPARATION METHOD THEREFOR, AND USE THEREOF” (Chengdu Shibeikang Biomedical Technology Co., Ltd., priority 2022, dated 2024).

System: human plasma
Assay: determination of in-vitro anticoagulant effect in human plasma (APTT)
Format: biochemical
Conditions: healthy human plasma, 37°C for 3 min
Description: After centrifugation, the plasma sample was pipetted and frozen (-80°C) for later use.
A proper amount of a compound was weighed and prepared into a 10-100 mM stock solution using 100% of DMSO (the specific concentration of the stock solution was determined based on the properties of the compound); and then working solutions with various concentrations (specifically: 1 µM, 3 µM and 10 µM, respectively) were prepared from the stock solution using the healthy human plasma as a solution and thoroughly mixed. After incubation at 37°C for 3 min, the sample was placed on an instrument (model: CS-2000I) to determine APTT.
GraphPad Prism software was used for analysis to calculate the APTT prolongation rate at each concentration.

Compound	APTT prolongation rate (%) (1 µM)	APTT prolongation rate (%) (3 µM)	APTT prolongation rate (%) (10 µM)
CC[C@@H](C(=O)Nc1ccc(C(=O)NC)c(Cl)c1)n1cc(OC)c(-c2cc(Cl)ccc2-n2cc(C(F)(F)F)nn2)cc1=O [Compound 3, (S)-2-chloro-4-(2-(4-(5-chloro-2-(4-(trifluoromethyl)-1H-1,2,3-triazol-1-yl)phenyl)-5-methoxy-2-oxopyridin-1(2H)-yl)butanamido)-N-methylbenzamide]	48.2	66.5	92.0
CC[C@@H](C(=O)Nc1ccc(C(=O)OC)c(Cl)c1)n1cc(OC)c(-c2cc(Cl)ccc2-n2cc(C(F)(F)F)nn2)cc1=O [Compound 4, Methyl (S)-2-chloro-4-(2-(4-(5-chloro-2-(4-(trifluoromethyl)-1H-1,2,3-triazol-1-yl)phenyl)-5-methoxy-2-oxopyridin-1(2H)-yl)butanamido)benzoate]	31.5	54.3	102.6
CC[C@@H](C(=O)Nc1ccc(C(N)=O)c(C(F)(F)F)c1)n1cc(OC)c(-c2cc(Cl)ccc2-n2cc(C(F)(F)F)nn2)cc1=O [Compound 7, (S)-4-(2-(4-(5-chloro-2-(4-(trifluoromethyl)-1H-1,2,3-triazol-1-yl)phenyl)-5-methoxy-2-oxopyridin-1(2H)-yl)butanamido)-2-(trifluoromethyl)benzamide]	37.9	52.4	73.4
CC[C@@H](C(=O)Nc1ccc(C(N)=O)c(C(N)=O)c1)n1cc(OC)c(-c2cc(Cl)ccc2-n2cc(C(F)(F)F)nn2)cc1=O [Compound 8, (S)-4-(2-(4-(5-chloro-2-(4-(trifluoromethyl)-1H-1,2,3-triazol-1-yl)phenyl)-5-methoxy-2-oxopyridin-1(2H)-yl)butanamido)phthalamide]	34.7	64.5	93.8
CC[C@@H](C(=O)Nc1ccc(C(N)=O)c(Cl)c1)n1cc(OC)c(-c2cc(Cl)ccc2-n2cc(Cl)nn2)cc1=O [Compound 10, (S)-2-chloro-4-(2-(4-(5-chloro-2-(4-chloro-1H-1,2,3-triazol-1-yl)phenyl)-5-methoxy-2-oxopyridin-1(2H)-yl)butanamido)benzamide]	38.6	56.0	98.9
CC[C@@H](C(=O)Nc1ccc(C(N)=O)c(C(F)(F)F)c1)n1cc(OC)c(-c2cc(Cl)ccc2-n2cc(Cl)nn2)cc1=O [Compound 11, (S)-4-(2-(4-(5-chloro-2-(4-chloro-1H-1,2,3-triazol-1-yl)phenyl)-5-methoxy-2-oxopyridin-1(2H)-yl)butanamido)-2-(trifluoromethyl)benzamide]	18.7	26.9	42.0
CC[C@@H](C(=O)Nc1ccc(C(N)=O)c(F)c1F)n1cc(OC)c(-c2cc(Cl)ccc2-n2cc(C(F)(F)F)nn2)cc1=O [Compound 12, (S)-4-(2-(4-(5-chloro-2-(4-(trifluoromethyl)-1H-1,2,3-triazol-1-yl)phenyl)-5-methoxy-2-oxopyridin-1(2H)-yl)butanamido)-2,3-difluorobenzamide]	23.2	33.5	81.1
CC[C@@H](C(=O)Nc1c(Cl)cc(C(N)=O)cc1Cl)n1cc(OC)c(-c2cc(Cl)ccc2-n2cc(C(F)(F)F)nn2)cc1=O [Compound 15, (S)-3,5-dichloro-4-(2-(4-(5-chloro-2-(4-(trifluoromethyl)-1H-1,2,3-triazol-1-yl)phenyl)-5-methoxy-2-oxopyridin-1(2H)-yl)butanamido)benzamide]	24.2	30.0	51.1
CC[C@@H](C(=O)Nc1ccc(C(N)=O)cc1Cl)n1cc(OC)c(-c2cc(Cl)ccc2-n2cc(C(F)(F)F)nn2)cc1=O [Compound 16, (S)-3-chloro-4-(2-(4-(5-chloro-2-(4-(trifluoromethyl)-1H-1,2,3-triazol-1-yl)phenyl)-5-methoxy-2-oxopyridin-1(2H)-yl)butanamido)-benzamide]	7.0	11.7	26.8
CC[C@@H](C(=O)Nc1ccc(C(=O)NC)cc1F)n1cc(OC)c(-c2cc(Cl)ccc2-n2cc(C(F)(F)F)nn2)cc1=O [Compound 19, (S)-4-(2-(4-(5-chloro-2-(4-(trifluoromethyl)-1H-1,2,3-triazol-1-yl)phenyl)-5-methoxy-2-oxopyridin-1(2H)-yl)butanamido)-3-fluoro-N-methylbenzamide]	24.2	44.0	77.1
CC[C@@H](C(=O)Nc1cc(F)c(C(=O)NC)c(F)c1)n1cc(OC)c(-c2cc(Cl)ccc2-n2cc(C(F)(F)F)nn2)cc1=O [Compound 20, (S)-4-(2-(4-(5-chloro-2-(4-(trifluoromethyl)-1H-1,2,3-triazol-1-yl)phenyl)-5-methoxy-2-oxopyridin-1(2H)-yl)butanamido)-2,6-difluoro-N-methylbenzamide]	19.2	49.2	98.6
[2H]C([2H])([2H])Oc1cn([C@@H](CC)C(=O)Nc2ccc(C(N)=O)cc2F)c(=O)cc1-c1cc(Cl)ccc1-n1cc(C(F)(F)F)nn1 [Compound 23, (S)-4-(2-(4-(5-chloro-2-(4-(trifluoromethyl)-1H-1,2,3-triazol-1-yl)phenyl)-5-(methoxy-d3)-2-oxopyridin-1(2H)-yl)butanamide)-3-fluorobenzamide]	48.8	81.2	168.0
[2H]C([2H])([2H])Oc1cn([C@@H](CC)C(=O)Nc2ccc(C(=O)NC)cc2F)c(=O)cc1-c1cc(Cl)ccc1-n1cc(C(F)(F)F)nn1 [Compound 24, (S)-4-(2-(4-(5-chloro-2-(4-(trifluoromethyl)-1H-1,2,3-triazol-1-yl)phenyl)-5-(methoxy-d3)-2-oxopyridin-1(2H)-yl)butanamido)-3-fluoro-N-methylbenzamide]	35.1	73.2	132.5
[2H]C([2H])([2H])NC(=O)c1ccc(NC(=O)[C@@H](n2cc(OC([2H])([2H])[2H])c(-c3cc(Cl)ccc3-n3cc(C(F)(F)F)nn3)cc2=O)C([2H])([2H])C([2H])([2H])[2H])cc1F [Compound 30, (S)-4-(2-(4-(5-chloro-2-(4-(trifluoromethyl)-1H-1,2,3-triazol-1-yl)phenyl)-5-(methoxy-d3)-2-oxopyridin-1(2H)-yl)butanamido-3,3,4,4,4-d5)-2-fluoro-N-(methyl-d3)benzamide]	48.1	79.0	138.4
(S)-4-(2-(4-(5-chloro-2-(4-(trifluoromethyl)-1H-1,2,3-triazol-1-yl)phenyl)-5-methoxy-2-oxopyridin-1(2H)-yl)butanamido)-3,6-difluorobenzamide [Compound 14]	0.9	9.1	18.5
